From PubChem BioAssay (NCI)
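Protocol summary: plate cells (96-well), add compound at 5 concentrations, incubate 48 h, interpolate endpoints linearly. GI50 marks 50% less growth. TGI marks complete inhibition of growth.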

How the values were obtained:
Test in all cases: growth of human tumour cells (NCI), 48 h
[1] = tested on: BT-549 breast
[2] = tested on: EKVX NSCLC
[3] = tested on: HOP-92 NSCLC
[4] = tested on: IGROV1 ovarian
[5] = tested on: KM12 colon
[6] = tested on: M14 melanoma
[7] = tested on: MDA-MB-231 breast
[8] = tested on: NCI-H460 lung
[9] = tested on: T-47D breast
[10] = tested on: UACC-257 melanoma

Row | SMILES | GI50 [1] [µM] | TGI [1] [µM] | GI50 [2] [µM] | TGI [2] [µM] | GI50 [3] [µM] | TGI [3] [µM] | GI50 [4] [µM] | TGI [4] [µM] | GI50 [5] [µM] | TGI [5] [µM] | GI50 [6] [µM] | TGI [6] [µM] | GI50 [7] [µM] | TGI [7] [µM] | GI50 [8] [µM] | TGI [8] [µM] | GI50 [9] [µM] | TGI [9] [µM] | GI50 [10] [µM] | TGI [10] [µM]
1 | O=C(/C=C/c1ccncc1)c1cc(Cl)ccc1O | 16.6 | 31.1 | 17.2 | 54.5 | 4.65 | 19.6 | 15 | 38.5 | 15.7 | 32.5 | 17.5 | 34.1 | 18.6 | 42.3 | 15.5 | 34.7 | 18.8 | 53.1 | 22.2 | 49.7
2 | COc1cc2c(c(OC)c1OC)-c1ccc(OC)c(=O)cc1C(NC(=O)c1ccc(N=[N+]=[N-])cc1)CC2 (centres undefined) | – | > 100 | – | > 100 | – | 18.9 | – | > 100 | – | 0.0786 | – | 31.2 | – | 12.5 | – | 0.0613 | – | > 100 | – | > 100
3 | O=C1OC(O)[C@@H]2[C@H]1[C@H]1CC[C@@H]2O1 (some centres undefined) | > 100 | > 100 | > 100 | > 100 | 20.3 | > 69.9 | > 100 | > 100 | 21.5 | 72.8 | 84.5 | > 100 | > 74.3 | > 100 | > 100 | > 100 | 15.2 | 42.6 | > 87 | > 100
4 | CC(=O)OC1=CC(n2cc(F)c(=O)[nH]c2=O)OC(C)C1=O (centres undefined) | – | > 100 | – | > 100 | – | > 100 | – | > 100 | – | > 100 | – | > 100 | – | > 100 | – | > 100 | – | > 100 | – | > 100
5 | CC(C)C(C)/C=C\C(C)C1CCC2C3=CC=C4CC(O)CCC4(C)C3CCC21C (centres undefined) | – | > 85.6 | – | > 64.8 | – | 70.2 | – | > 54.3 | – | > 100 | – | > 67.7 | – | > 61.3 | – | > 53.3 | – | > 100 | – | > 100
6 | COc1ccc(/C=C(/C#N)n2nnc3cccc(F)c32)cc1 | 2.39 | 52.9 | 2.37 | > 100 | 0.546 | 3.23 | 0.759 | 16.3 | 0.519 | 4.54 | 0.467 | 3.89 | 1.37 | 3.84 | 0.703 | 4.62 | 0.503 | > 100 | 77.8 | > 100
7 | Cc1cccc(NC(=O)Cn2cnc3sc(C(=O)OC(C)C)c(C)c3c2=O)c1 | 8.21 | 25.2 | 7.51 | 22.4 | > 50 | > 50 | 16.3 | > 50 | 30.3 | > 50 | > 50 | > 50 | 11.2 | 39.5 | 25.2 | > 50 | > 50 | > 50 | 19 | > 50
8 | Nc1ncnc2c1nnn2C1OC(CO)C(O)C1O (centres undefined) | 0.496 | 5.75 | – | 27.5 | – | 7 | – | 3.95 | – | 6.68 | 0.261 | 4.91 | 0.232 | 3.99 | – | 5.64 | 0.265 | 4.81 | – | 10.9
9 | COc1cc(/C=C/c2cc(O)c(C(C)=O)c(O)c2)cc2c1O[C@]1(C)CC[C@@H](O)C(C)(C)[C@H]1C2 | 3.03 | 27.6 | 13.1 | 72.9 | 3.2 | 61.6 | 6.44 | 69 | 5.41 | 45.4 | 5.12 | 49.4 | 6.26 | 93 | 6.26 | 57.5 | 6.22 | 64.6 | 11 | 72.7
10 | Cc1cc(/C=C/c2ccc3cc(N(C)C)ccc3[n+]2C)c(C)n1-c1ccccc1 | 0.159 | 1.09 | 0.102 | 3.9 | 0.193 | 1.33 | 0.3 | 3.92 | 0.158 | 0.843 | 0.3 | 1.25 | 0.193 | 1.09 | 0.146 | 0.56 | 0.0635 | 1.15 | 0.184 | 0.951
11 | COC1=CC(=O)C(C2CC(=O)c3c(O)cc(O)cc3O2)=CC1=O (centres undefined) | – | 42.9 | – | 30.8 | – | 17.6 | – | 33.6 | – | 32.2 | – | 35.1 | – | 29.1 | – | 51.8 | – | 42.7 | – | 34.9
12 | COc1cc2c3c(n(C)c(=O)c2cc1OC)-c1cc2c(cc1/C3=C\CCN)OCO2 | 2.13 | 46.1 | 1.71 | 13.5 | 1.32 | 26.5 | 0.882 | > 53.6 | 0.426 | 2.11 | 0.22 | 4.82 | 1.36 | 4.78 | 0.0147 | 1.81 | 1.08 | > 100 | 1.03 | 16.9
13 | COc1cc2c3c(n(C)c(=O)c2cc1OC)-c1cc2c(cc1/C3=C\CCCN)OCO2 | 15.5 | 38.9 | 17.7 | > 100 | 0.696 | 7.22 | 2.24 | 32.4 | 11 | 84.8 | 12.4 | > 100 | 5.09 | 31.5 | 2.65 | > 100 | 10.9 | > 100 | 30.5 | > 100
14 | Cc1c2c(nn1-c1ccc(S(=O)(=O)/N=C3\SCCC(=O)N3c3ccccc3)cc1)-c1ccccc1CC2 | > 100 | > 100 | 94 | > 100 | 81.2 | > 100 | > 100 | > 100 | > 100 | > 100 | > 100 | > 100 | 35.1 | > 100 | > 100 | > 100 | > 100 | > 100 | > 100 | > 100
